Results as given in ChEMBL document CHEMBL4840357, “Functionalized Dioxonaphthoimidazoliums: A Redox Cycling Chemotype with Potent Bactericidal Activities against Mycobacterium tuberculosis” (J Med Chem, 2021).
Calls of active or inactive are those of the source. The rule behind the calls is not given here.

Columns and labels:
[1] = tested on: Mycobacterium tuberculosis variant bovis BCG; test: Bactericidal activity against Mycobacterium bovis BCG ATCC 35734 assessed as fold reduction in viability at 4 times MIC measured over 14 days by time-kill assay; format: functional; settings: time 14 day
[2] = tested on: Mycobacterium tuberculosis variant bovis BCG; test: Induction of ROS generation in Mycobacterium bovis BCG ATCC 35734 at 2 times of MIC90 measured upto 24 hrs by cellrox-green reagent based assay; format: functional, organism-based; settings: time hrs <=24
[3] = tested on: Mycobacterium tuberculosis variant bovis BCG; test: Ratio of MIC for antimycobacterial activity against Mycobacterium bovis BCG ATCC 35734 in absence of glycerol to MIC for antimycobacterial activity against Mycobacterium bovis BCG ATCC 35734 in presence of glycerol; format: functional
[4] = tested on: Mycobacterium tuberculosis variant bovis BCG; test: Bactericidal activity against Mycobacterium bovis BCG ATCC 35734 at 0.5 to 1 times MIC90 incubated for 5 days in presence of TEMPO; format: functional, organism-based; settings: time 5.0 day
[5] = tested on: Mycobacterium tuberculosis variant bovis BCG; test: Bactericidal activity against Mycobacterium bovis BCG ATCC 35734 at 0.5 to 1 times MIC90 incubated for 5 days in presence of N-acetylcysteine; format: functional, organism-based; settings: time 5.0 day
[6] = tested on: Mycobacterium tuberculosis variant bovis BCG; test: Induction of oxidative stress Mycobacterium bovis BCG-pfurA-RFP ATCC 35734 assessed as activation of pfurA after 24 hrs by fluorescence assay; format: functional, organism-based
[7] = tested on: Mycobacterium tuberculosis variant bovis BCG; test: Bactericidal activity against Mycobacterium bovis BCG ATCC 35734 assessed as fold reduction in viability at 40 times MIC90 preincubated for 20 days under oxygen deprived condition followed by compound addition and measured after 5 days; format: functional; settings: time 5 day
[8] = tested on: Mycobacterium tuberculosis variant bovis BCG; test: Antimycobacterial activity against Mycobacterium bovis BCG ATCC 35734 carrying katG loss-of-function mutant assessed fold reduction in MIC at 1 to 2 times of MIC90 incubated for 5 days under liquid medium; format: functional, organism-based; settings: time 5.0 day
[9] = tested on: Mycobacterium tuberculosis variant bovis BCG; test: Bactericidal activity against Mycobacterium bovis BCG ATCC 35734 at 0.5 to 1 times MIC90 incubated for 5 days in presence of thiourea; format: functional, organism-based; settings: time 5.0 day
[10] = tested on: Mycobacterium tuberculosis variant bovis BCG; test: Antimycobacterial activity against Mycobacterium bovis BCG ATCC 35734 carrying katG loss-of-function mutant assessed fold reduction in MIC at 1 to 2 times of MIC90 incubated for 5 days; format: functional; settings: time 5 day
Cell membrane [11] = test: Induction of cell membrane depolarization in Mycobacterium bovis BCG ATCC 35734 at 4 times MIC after 8 hrs by DiOC2 dye based flourescence assay; format: functional, subcellular; settings: Mycobacterium tuberculosis variant bovis BCG
[12] = tested on: Mycobacterium tuberculosis variant bovis BCG; test: Bactericidal activity against Mycobacterium bovis BCG ATCC 35734 incubated for 5 days by broth dilution method; format: functional; settings: ATCC 35734, 120 h, time 5 day, read-out: MBC99.9
[13] = tested on: Mycobacterium tuberculosis variant bovis BCG; test: Bactericidal activity against Mycobacterium bovis BCG ATCC 35734 assessed as reduction in colony forming unit at 8 times MIC measured after 21 days by time-kill assay; format: functional, organism-based; settings: time 21.0 day
[14] = tested on: Mycobacterium tuberculosis variant bovis BCG; test: Induction of ROS generation in Mycobacterium bovis BCG ATCC 35734 after 90 mins by cellrox-green reagent based assay; format: functional, organism-based
[15] = tested on: Mycobacterium tuberculosis variant bovis BCG; test: Bactericidal activity against Mycobacterium bovis BCG ATCC 35734 assessed as reduction in colony forming unit at 0.5 to 1 times MIC90 incubated for 5 days; format: functional, organism-based; settings: time 5.0 day
[16] = tested on: Mycobacterium tuberculosis variant bovis BCG; test: Bactericidal activity against Mycobacterium bovis BCG ATCC 35734 assessed as reduction in colony forming count at 4 times MIC measured over 28 days by time-kill assay; format: functional, organism-based; settings: time 28.0 day
Cell membrane [17] = test: Induction of cell envelope stress in Mycobacterium bovis BCG ATCC 35734 expressing piniBAC RFP at 100 times MIC90 after 24 hrs by fluorescence analysis; format: functional, subcellular; settings: Mycobacterium tuberculosis variant bovis BCG
[18] = tested on: Mycobacterium tuberculosis variant bovis BCG; test: Antimycobacterial activity against Mycobacterium bovis BCG ATCC 35734 incubated for 5 days by broth dilution method; format: functional; settings: ATCC 35734, 120 h, time 5 day
[19] = tested on: Mycobacterium tuberculosis H37Rv; test: Activation of Mycobacterium tuberculosis NDH-2 overexpressed in mc24517 inverted membrane vesicles assessed as increase in NADH oxidation; format: cell membranes; settings: Membrane vesicle, filed as activator
Cell membrane [20] = test: Induction of membrane permeabilization in Mycobacterium bovis BCG ATCC 35734 at 4 times MIC after 8 hrs by SYTO9 and PI staining based fluorescence assay; format: functional, subcellular; settings: Mycobacterium tuberculosis variant bovis BCG
[21] = tested on: Mycobacterium tuberculosis variant bovis BCG; test: Antimycobacterial activity against Mycobacterium bovis BCG ATCC 35734 carrying katG loss-of-function mutant assessed fold reduction in MIC at 1 to 2 times of MIC90 incubated for 5 days under solid agar medium; format: functional, organism-based; settings: time 5.0 day

## CCCCCCCCn1c2c([n+](CCCC)c1C)C(=O)c1ccccc1C2=O.[Br-]
[1]
  fold change (FC): 100000
[2]
  Activity: Active
[3]
  Ratio: < 2
[4]
  Activity: Active
[5]
  Activity: Active
[6]
  Activity: Dose-Dependent Effect
[7]
  fold change (FC): 10
[8]
  Activity: Active
[9]
  Activity: Active
[10]
  fold change (FC): 2
Cell membrane [11]
  Activity: inactive
[12]
  MBC: 0.64 µM
[13]
  Activity: Active
[14]
  Activity: Dose-Dependent Effect
[15]
  Activity: Active
[16]
  Activity: Active
Cell membrane [17]
  Activity: inactive
[18]
  MIC50: 0.15 µM
  MIC90: 0.26 µM
[19]
  fold change (FC): 4.7
Cell membrane [20]
  Activity: inactive
[21]
  Activity: Active

## CCCCCCCn1c2c([n+](CCCCC)c1C)C(=O)c1ccccc1C2=O.[Br-]
[1]
  fold change (FC): 100000
[3]
  Ratio: < 2
[6]
  Activity: Dose-Dependent Effect
[7]
  fold change (FC): 10
[10]
  fold change (FC): 2
Cell membrane [11]
  Activity: inactive
[12]
  MBC: 0.64 µM
[14]
  Activity: Dose-Dependent Effect
[16]
  Activity: Active
Cell membrane [17]
  Activity: inactive
[18]
  MIC50: 0.16 µM
  MIC90: 0.27 µM
Cell membrane [20]
  Activity: inactive
